Results: patent US20230143042A1, “SYSTEM AND METHOD FOR AEROSOL PARTICLE PRODUCTION OF SUBMICRON AND NANO STRUCTURED MATERIALS” (The Trustees of Princeton University, priority 2020, published 2023)

Experiment: Size of dried aerosol particles by scanning electron microscopy
Type: physicochemical
Conditions: atomized at 1.5 bar gauge (TIPT-based sol 2.5 bar), dried in room air ~23° C., ~30% RH
Method: Various concentrations (e.g., 0.5-15% wt.) of solutions of sodium chloride in deionized water was prepared by mixing the crystals of table salt (NaCl) with deionized water at 45° C. for 15 min. The procedure for preparing precursor of silica (SiO2) was: tetraethoxysilane (TEOS), ethanol, deionized water, and HCl (mole ratio 1:3.8:1:5×10−5) were mixed at 60° C. for 120 min and then aged at room temperature under continuous stirring up to 43 hours. For synthesis of titania (TiO2) particles, titanium (IV) tetraisopropoxide (TIPT) and titanium (IV) butoxide (TBT)-based precursors were utilized. […]
For the salt solutions, the temperature and relative humidity of room air used for drying of droplets were ˜23° C. and ˜30% respectively. […] Provided the measured air velocity used to dry the droplets is ˜0.1-0.5 m/s (laminar flow, Re=300-1600), in terms of the drying kinetics of a single droplet, the generated droplets are expected to turn into dry particles after traveling 0.04-400 μm in room air, whereas the overall particle residence time in the setup is ˜1-5 s, which is much longer than the needed drying time. […]

[Cl-].[Na+] [NaCl, sodium chloride]
mean particle size: 227 nm
